Measurements as given in patent publication US10479780B2, “Aminopyrazole derivatives” (Chugai Seiyaku Kabushiki Kaisha, priority 2015, dated 2019).
Where two headings read alike, the source gives them in different places.

Experiments:
Assay type in all cases: biochemical
human Yes1 enzyme = target: T1, human Yes1 enzyme (Homo sapiens, UniProt P07947); test: Yes1 enzyme inhibitory activity (time-resolved fluorometry, biotinylated peptide phosphorylation); conditions: read-out: YES_IC50
T1 construct: made in house
How it was run: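 Inhibition was expressed against a compound-free control to give IC50, using TR-FRET read-out (Eu-cryptate anti-pTyr antibody, streptavidin-XL665).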

human Src enzyme = target: T2, human Src enzyme (Homo sapiens, UniProt P12931); test: Src enzyme inhibitory activity (time-resolved fluorometry, biotinylated peptide phosphorylation); conditions: read-out: SRC_IC50
T2 construct: purchased Carna Biosciences, Inc. 08-173
How it was run: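 Compounds were tested for blocking tyrosine phosphorylation of a biotinylated peptide substrate by recombinant human Src. Phosphorylated product was quantified by time-resolved fluorometry using europium cryptate and XL665 conjugates, and IC50 was calculated against the compound-free control.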

human Lck enzyme = target: T3, human Lck enzyme (Homo sapiens, UniProt P06239); test: Lck enzyme inhibitory activity (time-resolved fluorometry, biotinylated peptide phosphorylation); conditions: read-out: LCK_IC50
T3 construct: purchased Carna Biosciences, Inc. 08-170
How it was run: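 Readout pairs a europium cryptate-labelled anti-phosphotyrosine antibody with XL665-streptavidin, measured by time-resolved fluorescence. IC50 derived from percent inhibition against untreated controls.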

[1] = biotinylated peptide phosphorylation

T2 sequence (P12931 whole entry): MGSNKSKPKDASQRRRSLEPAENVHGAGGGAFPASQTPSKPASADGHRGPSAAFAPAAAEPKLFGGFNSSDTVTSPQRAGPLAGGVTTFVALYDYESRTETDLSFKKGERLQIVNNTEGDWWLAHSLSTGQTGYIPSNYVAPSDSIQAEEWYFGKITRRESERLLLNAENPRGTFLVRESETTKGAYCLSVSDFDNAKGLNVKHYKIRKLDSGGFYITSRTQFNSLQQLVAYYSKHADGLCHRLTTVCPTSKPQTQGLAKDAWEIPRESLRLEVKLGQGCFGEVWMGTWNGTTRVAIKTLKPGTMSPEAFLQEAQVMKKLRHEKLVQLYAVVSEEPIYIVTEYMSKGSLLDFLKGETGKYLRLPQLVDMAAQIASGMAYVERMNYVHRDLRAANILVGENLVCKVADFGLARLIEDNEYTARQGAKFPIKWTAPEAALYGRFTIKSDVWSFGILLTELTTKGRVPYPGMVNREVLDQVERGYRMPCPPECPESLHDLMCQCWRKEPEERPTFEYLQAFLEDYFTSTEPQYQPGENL
T3 sequence (P06239 whole entry): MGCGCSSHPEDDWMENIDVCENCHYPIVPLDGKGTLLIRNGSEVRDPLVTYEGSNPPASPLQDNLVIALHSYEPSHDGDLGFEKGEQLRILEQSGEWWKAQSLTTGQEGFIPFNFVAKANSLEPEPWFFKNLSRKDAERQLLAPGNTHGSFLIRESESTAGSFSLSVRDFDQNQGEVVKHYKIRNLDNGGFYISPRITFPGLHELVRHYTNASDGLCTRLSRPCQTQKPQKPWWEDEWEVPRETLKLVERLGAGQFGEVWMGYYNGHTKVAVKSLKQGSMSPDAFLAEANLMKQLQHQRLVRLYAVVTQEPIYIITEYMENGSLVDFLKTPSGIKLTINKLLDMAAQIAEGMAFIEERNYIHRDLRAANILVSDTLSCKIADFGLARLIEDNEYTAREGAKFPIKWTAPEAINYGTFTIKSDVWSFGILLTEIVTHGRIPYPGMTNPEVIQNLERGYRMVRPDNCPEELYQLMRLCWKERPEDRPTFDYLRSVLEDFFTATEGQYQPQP
T1 sequence (P07947 whole entry): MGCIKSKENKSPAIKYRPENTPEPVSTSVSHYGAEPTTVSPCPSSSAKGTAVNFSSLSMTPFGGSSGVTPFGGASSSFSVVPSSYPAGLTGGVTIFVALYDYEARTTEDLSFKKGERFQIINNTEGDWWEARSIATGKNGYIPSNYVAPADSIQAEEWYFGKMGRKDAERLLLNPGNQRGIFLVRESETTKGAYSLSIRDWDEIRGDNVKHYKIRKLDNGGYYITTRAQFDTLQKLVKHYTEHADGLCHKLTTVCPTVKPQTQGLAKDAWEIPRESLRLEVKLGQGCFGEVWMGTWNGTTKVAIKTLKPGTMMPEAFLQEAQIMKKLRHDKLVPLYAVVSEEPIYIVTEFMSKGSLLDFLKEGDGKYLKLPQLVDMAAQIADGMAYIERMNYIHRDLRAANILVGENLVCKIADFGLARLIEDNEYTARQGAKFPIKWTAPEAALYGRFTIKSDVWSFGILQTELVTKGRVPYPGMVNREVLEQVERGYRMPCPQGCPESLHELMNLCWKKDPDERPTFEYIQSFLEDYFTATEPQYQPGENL

Question: How did the IC50 (human Yes1 enzyme; [1]) turn out when Cc1cc2cc(C(=O)c3cnn(-c4ccc(Oc5ccccc5F)cc4C)c3N)[nH]c2cc1NS(=O)(=O)c1cccc(F)n1 [Example 5-1-515, N-[2-[5-amino-1-[4-(2-fluorophenoxy)-2-methylphenyl]pyrazole-4-carbonyl]-5-methyl-1H-indol-6-yl]-6-fluoropyridine-2-sulfonamide] was run?
Answer: 0.0024 µM

Question: What about the IC50 (human Src enzyme; [1]) of the same compound?
Answer: 0.28 µM

Question: And the IC50 (human Lck enzyme; [1])?
Answer: 0.059 µM

Question: Which results are given for Cc1cc2cc(C(=O)c3cnn(-c4cnc(Oc5ccccc5F)cc4C)c3N)[nH]c2cc1NS(=O)(=O)c1cccc(F)n1 [Example 5-1-502, N-[2-[5-amino-1-[6-(2-fluorophenoxy)-4-methylpyridin-3-yl]pyrazole-4-carbonyl]-5-methyl-1H-indol-6-yl]-6-fluoropyridine-2-sulfonamide]?
Answer: IC50 (human Yes1 enzyme; [1]): 0.0023 µM; IC50 (human Src enzyme; [1]): 0.35 µM; IC50 (human Lck enzyme; [1]): 0.11 µM

Question: How did the IC50 (human Yes1 enzyme; [1]) turn out when Cc1cc(Oc2ccccc2F)ccc1-n1ncc(C(=O)c2cc3cc(F)c(N4C(=O)CNC4=O)cc3[nH]2)c1N [Example 5-1-445, 3-[2-[5-amino-1-[4-(2-fluorophenoxy)-2-methylphenyl]pyrazole-4-carbonyl]-5-fluoro-1H-indol-6-yl]imidazolidine-2,4-dione] was run?
Answer: 0.00054 µM

Question: And the IC50 (human Src enzyme; [1])?
Answer: 0.012 µM

Question: And the IC50 (human Lck enzyme; [1])?
Answer: 0.0031 µM

Question: What does the source list for Cc1cc(-n2ncc(C(=O)c3cc4cc(N5CCOCC5)c(NS(C)(=O)=O)cc4[nH]3)c2N)ccc1Oc1ccccc1F [Example 5-1-157, N-[2-[5-amino-1-[4-(2-fluorophenoxy)-3-methylphenyl]pyrazole-4-carbonyl]-5-morpholin-4-yl-1H-indol-6-yl] methanesulfonamide]?
Answer: IC50 (human Yes1 enzyme): 0.0019 µM; IC50 (human Src enzyme): 1.1 µM; IC50 (human Lck enzyme): 0.48 µM

Question: Which IC50 (human Yes1 enzyme; [1]) does the source give for Cc1cc(Oc2cccc(F)c2F)ccc1-n1ncc(C(=O)c2cc3cc(F)c(C4CCN(C(C)C)CC4)cc3[nH]2)c1N [Example 4-2-011, [5-amino-1-[4-(2,3-difluorophenoxy)-2-methylphenyl]pyrazol-4-yl][5-fluoro-6-(1-propan-2-ylpiperidin-4-yl)-1H-indol-2-yl]methanone] here?
Answer: 0.0022 µM

Question: And the IC50 (human Src enzyme; [1])?
Answer: 0.011 µM

Question: And the IC50 (human Lck enzyme; [1])?
Answer: 0.0027 µM

Question: Cc1cc(Oc2ccccc2F)ccc1-n1ncc(C(=O)c2cc3cc(F)c(NS(=O)(=O)NCC(C)(C)O)cc3[nH]2)c1N [Example 4-6-004, [5-amino-1-[4-(2-fluorophenoxy)-2-methylphenyl]pyrazol-4-yl]-[5-fluoro-6-[(2-hydroxy-2-methylpropyl)sulfamoylamino]-1H-indol-2-yl]methanone] was tested. Which IC50 (human Yes1 enzyme; [1]) did it give?
Answer: 0.0011 µM

Question: What about the IC50 (human Src enzyme; [1]) of the same compound?
Answer: 0.041 µM

Question: What about the IC50 (human Lck enzyme; [1]) of the same compound?
Answer: 0.0069 µM

Question: How did the IC50 (human Yes1 enzyme; [1]) turn out when Cc1cc(Oc2ccccc2F)ccc1-n1ncc(C(=O)c2cc3cc(F)c(N4C(=O)[C@@H]5CCCN5C4=O)cc3[nH]2)c1N [Example 5-1-448, (7aS)-2-[2-[5-amino-1-[4-(2-fluorophenoxy)-2-methylphenyl]pyrazole-4-carbonyl]-5-fluoro-1H-indol-6-yl]-5,6,7,7a-tetrahydropyrrolo [1,2-c]imidazole-1,3-dione] was run?
Answer: 0.0012 µM

Question: And the IC50 (human Src enzyme; [1])?
Answer: 0.023 µM

Question: And the IC50 (human Lck enzyme; [1])?
Answer: 0.0039 µM

Question: Which IC50 (human Yes1 enzyme; [1]) does the source give for Cc1cc(Oc2ccccc2F)cc(F)c1-n1ncc(C(=O)c2cc3cc(OCC(F)F)c(N4CCN(S(C)(=O)=O)CC4)cc3[nH]2)c1N [Example 4-23-006, [5-amino-1-[2-fluoro-4-(2-fluorophenoxy)-6-methylphenyl]pyrazol-4-yl]-[5-(2,2-difluoroethoxy)-6-(4-methylsulfonylpiperazin-1-yl)-1H-indol-2-yl]methanone] here?
Answer: 0.0027 µM

Question: What about the IC50 (human Src enzyme; [1]) of the same compound?
Answer: 0.022 µM

Question: And the IC50 (human Lck enzyme; [1])?
Answer: 0.013 µM

Question: Which IC50 (human Yes1 enzyme; [1]) does the source give for Cc1cc(Oc2cccc(Cl)c2)cc(F)c1-n1ncc(C(=O)c2cc3cc(F)c(NS(C)(=O)=O)cc3[nH]2)c1N [Example 4-7-011, N-[2-[5-amino-1-[4-(3-chlorophenoxy)-2-fluoro-6-methylphenyl]pyrazole-4-carbonyl]-5-fluoro-1H-indol-6-yl]methanesulfonamide] here?
Answer: 0.014 µM

Question: And the IC50 (human Src enzyme; [1])?
Answer: 0.2 µM

Question: And the IC50 (human Lck enzyme; [1])?
Answer: 0.097 µM

Question: How did the IC50 (human Yes1 enzyme) turn out when Cc1cc2cc(C(=O)c3cnn(-c4cnc(Oc5c(F)cccc5F)cc4C)c3N)[nH]c2cc1N1C(=O)NC2(CCNCC2)C1=O [Example 5-1-357, 3-[2-[5-amino-1-[6-(2,6-difluorophenoxy)-4-methylpyridin-3-yl]pyrazole-4-carbonyl]-5-methyl-1H-indol-6-yl]-1,3,8-triazaspiro[4.5] decane-2,4-dione] was run?
Answer: 0.0023 µM

Question: What about the IC50 (human Src enzyme) of the same compound?
Answer: 0.039 µM

Question: What about the IC50 (human Lck enzyme) of the same compound?
Answer: 0.0044 µM

Question: For CC(=O)N1CCC(c2cc3[nH]c(C(=O)c4cnn(-c5ccc(Oc6ccccc6F)cc5C)c4N)cc3cc2C)CC1 [Example 5-1-132, 1-[4-[2-[5-amino-1-[4-(2-fluorophenoxy)-2-methylphenyl]pyrazole-4-carbonyl]-5-methyl-1H-indol-6-yl]piperidin-1-yl]ethanone], which IC50 (human Yes1 enzyme) is on record?
Answer: 0.00071 µM

Question: What about the IC50 (human Src enzyme) of the same compound?
Answer: 0.0066 µM

Question: What about the IC50 (human Lck enzyme) of the same compound?
Answer: 0.0033 µM

Question: Which IC50 (human Yes1 enzyme; [1]) does the source give for Cc1cc2cc(C(=O)c3cnn(-c4cnc(Oc5ccccc5F)cc4C)c3N)[nH]c2cc1NS(=O)(=O)c1cccc(Cl)c1 [Example 5-1-464, N-[2-[5-amino-1-[6-(2-fluorophenoxy)-4-methylpyridin-3-yl]pyrazole-4-carbonyl]-5-methyl-1H-indol-6-yl]-3-chlorobenzenesulfonamide] here?
Answer: 0.0093 µM

Question: What about the IC50 (human Src enzyme; [1]) of the same compound?
Answer: 1.2 µM

Question: And the IC50 (human Lck enzyme; [1])?
Answer: 0.31 µM

Question: Which IC50 (human Yes1 enzyme; [1]) does the source give for Cc1cc(Oc2c(F)cccc2F)ncc1-n1ncc(C(=O)c2cc3cc(OCC(F)F)c(NS(=O)(=O)c4cccc(C#N)n4)cc3[nH]2)c1N [Example 5-1-574, N-[2-[5-amino-1-[6-(2,6-difluorophenoxy)-4-methylpyridin-3-yl]pyrazole-4-carbonyl]-5-(2,2-difluoroethoxy)-1H-indol-6-yl]-6-cyanopyridine-2-sulfonamide] here?
Answer: 0.0028 µM

Question: What about the IC50 (human Src enzyme; [1]) of the same compound?
Answer: 0.54 µM

Question: What about the IC50 (human Lck enzyme; [1]) of the same compound?
Answer: 0.013 µM

Question: How did the IC50 (human Yes1 enzyme; [1]) turn out when Cc1cc(Oc2ccccc2F)ncc1-n1ncc(C(=O)c2cc3cc(F)c(NS(=O)(=O)N4CCOCC4)cc3[nH]2)c1N [Example 4-5-001, N-{2-{5-amino-1-[6-(2-fluorophenoxy)-4-methylpyridin-3-yl]pyrazole-4-carbonyl}-5-fluoro-1H-indol-6-yl}morpholine-4-sulfonamide] was run?
Answer: 0.0012 µM

Question: What about the IC50 (human Src enzyme; [1]) of the same compound?
Answer: 0.12 µM

Question: And the IC50 (human Lck enzyme; [1])?
Answer: 0.033 µM

Question: With Cc1cc(Oc2ccccc2F)ncc1-n1ncc(C(=O)c2cc3cc(F)c(NS(=O)(=O)NC(C)C)cc3[nH]2)c1N [Example 5-1-021, [5-amino-1-[6-(2-fluorophenoxy)-4-methylpyridin-3-yl]pyrazol-4-yl]-[5-fluoro-6-(propan-2-ylsulfamoylamino)-1H-indol-2-yl] methanone] as the compound, how does the IC50 (human Yes1 enzyme) read?
Answer: 0.0098 µM

Question: What about the IC50 (human Src enzyme) of the same compound?
Answer: 0.31 µM

Question: What about the IC50 (human Lck enzyme) of the same compound?
Answer: 0.072 µM

Question: For Cc1cc(Oc2ccccc2F)ccc1-n1ncc(C(=O)c2cc3cc(OCCN4CCOCC4)c(N4CCCS4(=O)=O)cc3[nH]2)c1N [Example 4-25-012, [5-amino-1-[4-(2-fluorophenoxy)-2-methylphenyl]pyrazol-4-yl]-[6-(1,1-dioxo-1,2-thiazolidin-2-yl)-5-(2-morpholin-4-ylethoxy)-1H-indol-2-yl]methanone], which IC50 (human Yes1 enzyme; [1]) is on record?
Answer: 0.00035 µM

Question: And the IC50 (human Src enzyme; [1])?
Answer: 0.003 µM

Question: What about the IC50 (human Lck enzyme; [1]) of the same compound?
Answer: 0.0021 µM

Question: Cc1cc(-n2ncc(C(=O)c3cc4cc(OC[C@H](O)CO)c(Br)cc4[nH]3)c2N)ccc1Oc1ccccc1F [Example 5-1-237, (R)-(5-amino-1-(4-(2-fluorophenoxy)-3-methylphenyl)-1H-pyrazol-4-yl)(6-bromo-5-(2,3-dihydroxypropoxy)-1H-indol-2-yl)methanone] was tested. Which IC50 (human Yes1 enzyme) did it give?
Answer: 0.0015 µM

Question: What about the IC50 (human Src enzyme) of the same compound?
Answer: 0.18 µM

Question: And the IC50 (human Lck enzyme)?
Answer: 0.036 µM

Question: Which IC50 (human Yes1 enzyme; [1]) does the source give for Cc1cc(Oc2ccc(F)cc2)ncc1-n1ncc(C(=O)c2cc3cc(Cl)c(NS(C)(=O)=O)cc3[nH]2)c1N [Example 4-2-092, N-[2-[5-amino-1-[6-(4-fluorophenoxy)-4-methylpyridin-3-yl]pyrazole-4-carbonyl]-5-chloro-1H-indol-6-yl]methanesulfonamide] here?
Answer: 0.019 µM

Question: What about the IC50 (human Src enzyme; [1]) of the same compound?
Answer: 0.27 µM

Question: What about the IC50 (human Lck enzyme; [1]) of the same compound?
Answer: 0.078 µM

Question: Which IC50 (human Yes1 enzyme; [1]) does the source give for Cc1cc2cc(C(=O)c3cnn(-c4cnc(Oc5ccccc5F)cc4C)c3N)[nH]c2cc1NS(=O)(=O)c1cnc(N(C)C)nc1 [Example 5-1-577, N-[2-[5-amino-1-[6-(2-fluorophenoxy)-4-methylpyridin-3-yl]pyrazole-4-carbonyl]-5-methyl-1H-indol-6-yl]-2-(dimethylamino) pyrimidine-5-sulfonamide] here?
Answer: 0.0066 µM

Question: And the IC50 (human Src enzyme; [1])?
Answer: 1.1 µM

Question: And the IC50 (human Lck enzyme; [1])?
Answer: 0.38 µM

Question: What does the source list for Cc1cc2cc(C(=O)c3cnn(-c4ccc(Oc5cccc(F)c5F)cc4C)c3N)[nH]c2cc1NS(=O)(=O)N1CCOCC1 [Example 4-2-106, N-[2-[5-amino-1-[4-(2,3-difluorophenoxy)-2-methylphenyl]pyrazole-4-carbonyl]-5-methyl-1H-indol-6-yl]morpholine-4-sulfonamide]?
Answer: IC50 (human Yes1 enzyme; [1]): 0.0014 µM; IC50 (human Src enzyme; [1]): 0.18 µM; IC50 (human Lck enzyme; [1]): 0.051 µM

Question: For Cc1cc(Oc2ccccc2F)ncc1-n1ncc(C(=O)c2cc3cc(F)c(NS(=O)(=O)CC(=O)N4CCCC4)cc3[nH]2)c1N [Example 4-10-005, N-[2-[5-amino-1-[6-(2-fluorophenoxy)-4-methylpyridin-3-yl]pyrazole-4-carbonyl]-5-fluoro-1H-indol-6-yl]-2-oxo-2-pyrrolidin-1-ylethanesulfonamide], which IC50 (human Yes1 enzyme; [1]) is on record?
Answer: 0.0028 µM

Question: And the IC50 (human Src enzyme; [1])?
Answer: 0.058 µM

Question: And the IC50 (human Lck enzyme; [1])?
Answer: 0.016 µM

Question: With COc1cc2cc(C(=O)c3cnn(-c4c(C)cc(Oc5ccccc5F)cc4F)c3N)[nH]c2cc1NS(C)(=O)=O [Example 4-1-006, N-[2-[5-amino-1-[2-fluoro-4-(2-fluorophenoxy)-6-methylphenyl]pyrazole-4-carbonyl]-5-methoxy-1H-indol-6-yl]methanesulfonamide] as the compound, how does the IC50 (human Yes1 enzyme; [1]) read?
Answer: 0.0018 µM

Question: What about the IC50 (human Src enzyme; [1]) of the same compound?
Answer: 0.074 µM

Question: What about the IC50 (human Lck enzyme; [1]) of the same compound?
Answer: 0.011 µM
